Measurements published in patent US7091202B2, “4-arylspirocycloalkyl-2-aminopyrimidine carboxamide KCNQ potassium channel modulators” (Bristol-Myers Squibb Company, priority 2004, dated 2006).

target: T1, hQ23 (HEK-293 cell line stably transfected with one of the members of the KCNQ family) (Homo sapiens, UniProt O43525+O43526); assay: Thallium flux assay for KCNQ channel blockers (FLIPR, BTC dye); assay type: cell-based; conditions: hQ23 cells, thallium flux assay
T1 construct: expressed in transfected cells; host or cells: HEK-293, stably transfected
T1 sequence (O43526 whole entry): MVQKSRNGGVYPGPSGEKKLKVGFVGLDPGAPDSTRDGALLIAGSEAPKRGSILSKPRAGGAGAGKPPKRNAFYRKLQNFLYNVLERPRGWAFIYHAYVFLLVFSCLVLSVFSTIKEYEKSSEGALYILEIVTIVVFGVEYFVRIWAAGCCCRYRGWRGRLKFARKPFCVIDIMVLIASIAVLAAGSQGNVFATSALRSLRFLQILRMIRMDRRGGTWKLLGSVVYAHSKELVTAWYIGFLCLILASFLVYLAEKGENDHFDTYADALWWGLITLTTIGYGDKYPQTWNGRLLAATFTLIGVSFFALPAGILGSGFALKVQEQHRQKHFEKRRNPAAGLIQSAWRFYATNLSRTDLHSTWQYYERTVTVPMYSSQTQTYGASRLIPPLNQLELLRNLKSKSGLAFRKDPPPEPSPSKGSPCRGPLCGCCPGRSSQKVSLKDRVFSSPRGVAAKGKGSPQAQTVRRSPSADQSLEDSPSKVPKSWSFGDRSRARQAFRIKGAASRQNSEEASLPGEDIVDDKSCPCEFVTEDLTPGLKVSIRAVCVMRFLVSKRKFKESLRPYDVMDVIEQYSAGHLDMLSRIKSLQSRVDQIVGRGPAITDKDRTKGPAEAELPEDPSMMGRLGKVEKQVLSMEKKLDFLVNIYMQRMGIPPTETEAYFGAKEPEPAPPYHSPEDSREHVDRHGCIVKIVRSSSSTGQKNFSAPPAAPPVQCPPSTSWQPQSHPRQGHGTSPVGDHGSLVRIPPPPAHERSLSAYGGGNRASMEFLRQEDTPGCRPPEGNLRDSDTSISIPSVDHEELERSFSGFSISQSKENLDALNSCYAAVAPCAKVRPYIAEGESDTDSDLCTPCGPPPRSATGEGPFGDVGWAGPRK
T1 sequence (O43525 whole entry): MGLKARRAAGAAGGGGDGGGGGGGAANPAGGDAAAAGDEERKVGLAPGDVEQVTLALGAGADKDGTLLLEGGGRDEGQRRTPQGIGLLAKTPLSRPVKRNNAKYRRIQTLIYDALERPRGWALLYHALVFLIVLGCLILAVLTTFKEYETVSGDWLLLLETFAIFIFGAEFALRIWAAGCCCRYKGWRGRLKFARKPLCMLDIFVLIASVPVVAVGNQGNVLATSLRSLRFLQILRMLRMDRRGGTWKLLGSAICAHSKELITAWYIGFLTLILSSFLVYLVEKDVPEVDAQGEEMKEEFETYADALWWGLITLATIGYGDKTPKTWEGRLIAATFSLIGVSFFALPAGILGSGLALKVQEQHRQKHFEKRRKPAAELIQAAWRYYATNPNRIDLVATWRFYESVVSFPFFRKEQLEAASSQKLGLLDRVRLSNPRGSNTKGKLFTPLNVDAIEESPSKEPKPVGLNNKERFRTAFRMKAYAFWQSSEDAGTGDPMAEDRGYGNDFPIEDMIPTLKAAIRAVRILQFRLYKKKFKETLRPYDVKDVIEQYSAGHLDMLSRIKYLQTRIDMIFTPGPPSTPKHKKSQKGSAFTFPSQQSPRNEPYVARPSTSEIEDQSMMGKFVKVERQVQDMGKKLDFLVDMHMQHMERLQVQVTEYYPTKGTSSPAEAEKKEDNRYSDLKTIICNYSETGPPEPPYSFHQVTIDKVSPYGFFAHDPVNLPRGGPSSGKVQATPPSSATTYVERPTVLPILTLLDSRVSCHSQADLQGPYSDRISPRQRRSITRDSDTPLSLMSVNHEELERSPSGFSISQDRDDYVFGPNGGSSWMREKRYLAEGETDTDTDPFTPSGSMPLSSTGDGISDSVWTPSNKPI
How it was run: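 HEK-293 cells stably expressing a KCNQ member, loaded with BTC-AM (2 μM) in chloride-free buffer, pH 7.3; compounds added at 1% DMSO, then Tl2SO4 stimulus on FLIPR (488/540 nm, 60 s). Minimal active concentration set at ≥4 SD above negative control; IC50 from 10-point 1:3 series, single-site logistic fit versus the positive-control blocker.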

Row | Compound | EC50 [nM]
1 | CC(NC(=O)c1cnc(N2CCN(C)CC2)nc1C1(c2ccc(F)cc2)CCCC1)c1cccc2ccccc12 (centres unmarked) [Example 243, 5-pyrimidinecarboxamide, 4-[1-(4-fluorophenyl)cyclopentyl]-2-(4-methyl-1-piperazinyl)-N-[1-(1-naphthalenyl)ethyl]-] | 852
2 | CC1CCCN(c2ncc(C(=O)NC(C)c3cccc4ccccc34)c(C3(c4ccc(F)cc4)CCCC3)n2)C1 (centres unmarked) [Example 244, 5-pyrimidinecarboxamide, 4-[1-(4-fluorophenyl)cyclopentyl]-2-(3-methyl-1-piperidinyl)-N-[1-(1-naphthalenyl)ethyl]-] | 10
3 | CCC(C)Nc1ncc(C(=O)NC(C)c2cccc3ccccc23)c(C2(c3ccc(F)cc3)CCCC2)n1 (centres unmarked) [Example 246, 5-pyrimidinecarboxamide, 4-[1-(4-fluorophenyl)cyclopentyl]-2-[(1-methylpropyl)amino]-N-[1-(1-naphthalenyl)ethyl]-] | 177
4 | CC(NC(=O)c1cnc(NC2CCCC2)nc1C1(c2ccc(F)cc2)CCCC1)c1cccc2ccccc12 (centres unmarked) [Example 247, 5-pyrimidinecarboxamide, 2-(cyclopentylamino)-4-[1-(4-fluorophenyl)cyclopentyl]-N-[1-(1-naphthalenyl)ethyl]-] | 92
5 | CN1CCN(c2ncc(C(=O)NCc3ccc(Cl)c(Cl)c3)c(C3(c4ccc(F)cc4)CCCC3)n2)CC1 [Example 254, 5-pyrimidinecarboxamide, N-[(3,4-dichlorophenyl)methyl]-4-[1-(4-fluorophenyl)cyclopentyl]-2-(4-methyl-1-piperazinyl)-] | 529
6 | CC1CCCN(c2ncc(C(=O)NCc3ccc(Cl)c(Cl)c3)c(C3(c4ccc(F)cc4)CCCC3)n2)C1 (centres unmarked) [Example 255, 5-pyrimidinecarboxamide, N-[(3,4-dichlorophenyl)methyl]-4-[1-(4-fluorophenyl)cyclopentyl]-2-(3-methyl-1-piperidinyl)-] | 10
7 | CC1CCN(c2ncc(C(=O)NCc3ccc(Cl)c(Cl)c3)c(C3(c4ccc(F)cc4)CCCC3)n2)CC1 [Example 256, 5-pyrimidinecarboxamide, N-[(3,4-dichlorophenyl)methyl]-4-[1-(4-fluorophenyl)cyclopentyl]-2-(4-methyl-1-piperidinyl)-] | 10
8 | CN(C)CCNc1ncc(C(=O)NCc2ccc(Cl)c(Cl)c2)c(C2(c3ccc(F)cc3)CCCC2)n1 [Example 257, 5-pyrimidinecarboxamide, N-[(3,4-dichlorophenyl)methyl]-2-[[2-(dimethylamino)ethyl]amino]-4-[1-(4-fluorophenyl)cyclopentyl]-] | 904
9 | O=C(NCc1ccc(Cl)c(Cl)c1)c1cnc(NC2CCCC2)nc1C1(c2ccc(F)cc2)CCCC1 [Example 258, 5-pyrimidinecarboxamide, 2-(cyclopentylamino)-N-[(3,4-dichlorophenyl)methyl]-4-[1-(4-fluorophenyl)cyclopentyl]-] | 91
10 | O=C(NCc1ccc(Cl)cc1Cl)c1cnc(NC2CC2)nc1C1(c2ccc(F)cc2)CCCC1 [Example 259, 5-pyrimidinecarboxamide, 2-(cyclopropylamino)-N-[(2,4-dichlorophenyl)methyl]-4-[1-(4-fluorophenyl)cyclopentyl]-] | 869
11 | CC1CCC(Nc2ncc(C(=O)NCc3ccc(Cl)cc3Cl)c(C3(c4ccc(F)cc4)CCCC3)n2)CC1 (centres unmarked) [Example 260, 5-pyrimidinecarboxamide, N-[(2,4-dichlorophenyl)methyl]-4-[1-(4-fluorophenyl)cyclopentyl]-2-[(4-methylcyclohexyl)amino]-] | 10
12 | CC1CCCN(c2ncc(C(=O)NCc3ccc(Cl)cc3Cl)c(C3(c4ccc(F)cc4)CCCC3)n2)C1 (centres unmarked) [Example 262, 5-pyrimidinecarboxamide, N-[(2,4-dichlorophenyl)methyl]-4-[1-(4-fluorophenyl)cyclopentyl]-2-(3-methyl-1-piperidinyl)-] | 10
13 | CN1CCC(N(C)c2ncc(C(=O)NCc3ccc(Cl)cc3Cl)c(C3(c4ccc(F)cc4)CCCC3)n2)CC1 [Example 264, 5-pyrimidinecarboxamide, N-[(2,4-dichlorophenyl)methyl]-4-[1-(4-fluorophenyl)cyclopentyl]-2-[methyl(1-methyl-4-piperidinyl)amino]-] | 282
14 | CCC(C)Nc1ncc(C(=O)NCc2ccc(Cl)cc2Cl)c(C2(c3ccc(F)cc3)CCCC2)n1 (centres unmarked) [Example 265, 5-pyrimidinecarboxamide, N-[(2,4-dichlorophenyl)methyl]-4-[1-(4-fluorophenyl)cyclopentyl]-2-[(1-methylpropyl)amino]-] | 138

Other lines, results leading:

Row | EC50 [nM] | Compound
15 | 34 | CC(NC(=O)c1cnc(N2CCCC2)nc1C1(c2ccc(F)cc2)CCCC1)c1cccc2ccccc12 (centres unmarked) [Example 242, 5-pyrimidinecarboxamide, 4-[1-(4-fluorophenyl)cyclopentyl]-N-[1-(1-naphthalenyl)ethyl]-2-(1-pyrrolidinyl)-]
16 | 10 | CC1CCN(c2ncc(C(=O)NC(C)c3cccc4ccccc34)c(C3(c4ccc(F)cc4)CCCC3)n2)CC1 (centres unmarked) [Example 245, 5-pyrimidinecarboxamide, 4-[1-(4-fluorophenyl)cyclopentyl]-2-(4-methyl-1-piperidinyl)-N-[1-(1-naphthalenyl)ethyl]-]
17 | 10 | CC1CCC(Nc2ncc(C(=O)NCc3cccc4ccccc34)c(C3(c4ccc(F)cc4)CCCC3)n2)CC1 (centres unmarked) [Example 248, 5-pyrimidinecarboxamide, 4-[1-(4-fluorophenyl)cyclopentyl]-2-[(4-methylcyclohexyl)amino]-N-(1-naphthalenylmethyl)-]
18 | 278 | O=C(NCc1cccc2ccccc12)c1cnc(N2CCCC2)nc1C1(c2ccc(F)cc2)CCCC1 [Example 249, 5-pyrimidinecarboxamide, 4-[1-(4-fluorophenyl)cyclopentyl]-N-(1-naphthalenylmethyl)-2-(1-pyrrolidinyl)-]
19 | 10 | CC1CCCN(c2ncc(C(=O)NCc3cccc4ccccc34)c(C3(c4ccc(F)cc4)CCCC3)n2)C1 (centres unmarked) [Example 250, 5-pyrimidinecarboxamide, 4-[1-(4-fluorophenyl)cyclopentyl]-2-(3-methyl-1-piperidinyl)-N-(1-naphthalenylmethyl)-]
20 | 15 | CC1CCN(c2ncc(C(=O)NCc3cccc4ccccc34)c(C3(c4ccc(F)cc4)CCCC3)n2)CC1 [Example 251, 5-pyrimidinecarboxamide, 4-[1-(4-fluorophenyl)cyclopentyl]-2-(4-methyl-1-piperidinyl)-N-(1-naphthalenylmethyl)-]
21 | 350 | CCC(C)Nc1ncc(C(=O)NCc2cccc3ccccc23)c(C2(c3ccc(F)cc3)CCCC2)n1 (centres unmarked) [Example 252, 5-pyrimidinecarboxamide, 4-[1-(4-fluorophenyl)cyclopentyl]-2-[(1-methylpropyl)amino]-N-(1-naphthalenylmethyl)-]
22 | 183 | O=C(NCc1cccc2ccccc12)c1cnc(NC2CCCC2)nc1C1(c2ccc(F)cc2)CCCC1 [Example 253, 5-pyrimidinecarboxamide, 2-(cyclopentylamino)-4-[1-(4-fluorophenyl)cyclopentyl]-N-(1-naphthalenylmethyl)-]
23 | 28 | O=C(NCc1ccc(Cl)cc1Cl)c1cnc(N2CCCC2)nc1C1(c2ccc(F)cc2)CCCC1 [Example 261, 5-pyrimidinecarboxamide, N-[(2,4-dichlorophenyl)methyl]-4-[1-(4-fluorophenyl)cyclopentyl]-2-(1-pyrrolidinyl)-]
